In patent publication US20070128217A1 (priority 2003, published 2007):

Columns and labels:
[1] = test system: antibodies in sera from SARS patients (sera 1a, 1b, 2, 6, 37, 62, London, SARS-yellow, SARS-green); assay type: binding, human; parameters: Binding of serum 6 to linear peptides of protein X1 of SARS-CoV Urbani / Binding of serum 37 to linear peptides of protein X1 of SARS-CoV Urbani / Binding of serum 6 to looped/cyclic peptide (PEPSCAN-ELISA) / Binding of serum 37 to looped/cyclic peptide (PEPSCAN-ELISA) / Binding of serum 37 to looped/cyclic peptides of protein X1 of SARS-CoV Urbani / Binding of serum 6 to linear peptides of protein X2 / Binding of serum 37 to linear peptides of protein X2 / Binding of serum 37 to looped/cyclic peptides of protein X2 of SARS-CoV Urbani / Binding of serum 6 to linear peptides of protein M of SARS-CoV Urbani / Binding of serum 37 to linear peptides of protein M of SARS-CoV Urbani / Binding of serum 6 to looped/cyclic peptides of protein M of SARS-CoV Urbani / Binding of serum 37 to looped/cyclic peptides of protein M of SARS-CoV Urbani / Binding of serum 6 to linear peptides of protein X3 of SARS-CoV Urbani / Binding of serum 37 to linear peptides of protein X3 of SARS-CoV Urbani / Binding of serum 37 to looped/cyclic peptides of protein X3 of SARS-CoV Urbani / Binding of serum 6 to linear peptides of protein X4 of SARS-CoV Urbani / Binding of serum 37 to linear peptides of protein X4 of SARS-CoV Urbani / Binding of serum 37 to looped/cyclic peptides of protein X4 of SARS-CoV Urbani / Binding of serum 6 to linear peptides of protein X5 of SARS-CoV Urbani / Binding of serum 37 to linear peptides of protein X5 of SARS-CoV Urbani / Binding of serum 37 to looped/cyclic peptides of protein X5 of SARS-CoV Urbani / Binding of serum 6 to linear peptides of protein N of SARS-CoV Urbani / Binding of serum 37 to linear peptides of protein N of SARS-CoV Urbani / Binding of serum 6 to linear peptide (PEPSCAN-ELISA) / Binding of serum 1a to looped/cyclic peptides of protein N of SARS-CoV Urbani / Binding of serum 1b to looped/cyclic peptides of protein N of SARS-CoV Urbani / Binding of serum 2 to looped/cyclic peptides of protein N of SARS-CoV Urbani / Binding of serum 6 to looped/cyclic peptides of protein N of SARS-CoV Urbani / Binding of serum 37 to looped/cyclic peptides of protein N of SARS-CoV Urbani / Binding of serum 62 to looped/cyclic peptides of protein N of SARS-CoV Urbani / Binding of serum London to looped/cyclic peptides of protein N of SARS-CoV Urbani / Binding of serum SARS-green to looped/cyclic peptides of protein N of SARS-CoV Urbani: unit not given here
[2] = test system: control sera (pooled serum of ten healthy LUMC hospital workers; commercial negative donor pooled serum from the Dutch bloodbank); assay type: binding, human; parameters: Binding of Control serum LUMC to linear peptides / Binding of Control serum Blood-bank to linear peptides / Binding of Control serum LUMC to looped peptides / Binding of Control Serum Blood-Bank to Looped peptides / Binding of Control serum LUMC to linear peptides of the protein M of SARS-CoV Urbani / Binding of Control serum Blood-bank to linear peptides of the protein M of SARS-CoV Urbani / Binding of Control serum LUMC to looped peptides of the protein M of SARS-CoV Urbani / Binding of Control Serum Blood-Bank to Looped peptides of the protein M of SARS-CoV Urbani: unit not given here
[3] = test system: rabbit serum obtained by immunizing a rabbit with the SARS-CoV strain Frankfurt 1; assay type: binding; parameters: Binding of a rabbit serum to linear peptides / Binding of a rabbit serum to looped peptides / Rabbit serum linear peptides / Rabbit serum looped peptides / Binding of a rabbit serum to linear peptides of protein N of SARS-CoV Urbani (Rabbit serum linear peptides) / Binding of a rabbit serum to looped/cyclic peptides of protein N of SARS-CoV Urbani (Rabbit serum looped peptides): unit not given here

## KVLPFHRWHTMVQTC
[1]
  Binding of serum 1a to linear peptides of protein X5 of SARS-CoV Urbani: 0.9
  Binding of serum 1a to looped/cyclic peptides of protein X5 of SARS-CoV Urbani: 0.7
  Binding of serum 1b to linear peptides of protein X5 of SARS-CoV Urbani: 0.6
  Binding of serum 1b to looped/cyclic peptides of protein X5 of SARS-CoV Urbani: 0.7
  Binding of serum 2 to linear peptides of protein X5 of SARS-CoV Urbani: 0.7
  Binding of serum 2 to looped/cyclic peptides of protein X5 of SARS-CoV Urbani: 0.6
  Binding of serum 6 to linear peptides of protein X5 of SARS-CoV Urbani: 0.5
  Binding of serum 6 to looped/cyclic peptides of protein X5 of SARS-CoV Urbani: 0.7
  Binding of serum 37 to linear peptides of protein X5 of SARS-CoV Urbani: 0.7
  Binding of serum 37 to looped/cyclic peptides of protein X5 of SARS-CoV Urbani: 0.6
  Binding of serum 62 to linear peptides of protein X5 of SARS-CoV Urbani: 0.7
  Binding of serum 62 to looped/cyclic peptides of protein X5 of SARS-CoV Urbani: 0.6
  Binding of serum London to linear peptides of protein X5 of SARS-CoV Urbani: 1.2
  Binding of serum London to looped/cyclic peptides of protein X5 of SARS-CoV Urbani: 0.4
  Binding of serum SARS-green to linear peptides of protein X5 of SARS-CoV Urbani: 0.6
  Binding of serum SARS-green to looped/cyclic peptides of protein X5 of SARS-CoV Urbani: 0.4
  Binding of serum SARS-yellow to linear peptides of protein X5 of SARS-CoV Urbani: 0.2
  Binding of serum SARS-yellow to looped/cyclic peptides of protein X5 of SARS-CoV Urbani: 0.3
[2]
  Binding of Control Serum Blood-Bank to Looped peptides: 0.6
  Binding of Control serum Blood-bank to linear peptides: 0.6
  Binding of Control serum LUMC to linear peptides: 0.4
  Binding of Control serum LUMC to looped peptides: 0.5
[3]
  Rabbit serum linear peptides: 0.6
  Rabbit serum looped peptides: 0.5

## LIQQWIQFMMSRRRL
[1]
  Binding of serum 1a to linear peptides of protein X2: 0.7
  Binding of serum 1a to looped/cyclic peptides of protein X2 of SARS-CoV Urbani: 0.5
  Binding of serum 1b to linear peptides of protein X2: 0.4
  Binding of serum 1b to looped/cyclic peptides of protein X2 of SARS-CoV Urbani: 0.5
  Binding of serum 2 to linear peptides of protein X2: 0.4
  Binding of serum 2 to looped/cyclic peptides of protein X2 of SARS-CoV Urbani: 0.8
  Binding of serum 6 to linear peptides of protein X2: 0.7
  Binding of serum 6 to looped/cyclic peptides of protein X2 of SARS-CoV Urbani: 0.5
  Binding of serum 37 to linear peptides of protein X2: 0.6
  Binding of serum 37 to looped/cyclic peptides of protein X2 of SARS-CoV Urbani: 0.5
  Binding of serum 62 to linear peptides of protein X2: 0.5
  Binding of serum 62 to looped/cyclic peptides of protein X2 of SARS-CoV Urbani: 0.8
  Binding of serum London to linear peptides of protein X2: 0.5
  Binding of serum London to looped/cyclic peptides of protein X2 of SARS-CoV Urbani: 0.9
  Binding of serum SARS-green to linear peptides of protein X2: 0.4
  Binding of serum SARS-green to looped/cyclic peptides of protein X2 of SARS-CoV Urbani: 0.3
  Binding of serum SARS-yellow to linear peptides of protein X2: 0.8
  Binding of serum SARS-yellow to looped/cyclic peptides of protein X2 of SARS-CoV Urbani: 0.5
[2]
  Binding of Control Serum Blood-Bank to Looped peptides: 0.4
  Binding of Control serum Blood-bank to linear peptides: 0.7
  Binding of Control serum LUMC to linear peptides: 0.5
  Binding of Control serum LUMC to looped peptides: 0.6
[3]
  Binding of a rabbit serum to linear peptides: 0.3
  Binding of a rabbit serum to looped peptides: 1.2

## ACRIIMRCWLCWKCK
[1]
  Recognition of the peptide by sera of SARS-CoV infected individuals, and form (linear, looped/cyclic) in which it is recognized: recognized in linear form
[2]
  Binding of Control Serum Blood-Bank to Looped peptides: 0.1
  Binding of Control serum Blood-bank to linear peptides: 1.0
  Binding of Control serum LUMC to linear peptides: 0.8
  Binding of Control serum LUMC to looped peptides: 0.3
[3]
  Recognition of the peptide by the rabbit serum: recognized

## KNPLLYDANYFVCWH
[1]
  Binding of serum 1a to linear peptides of protein X1 of SARS-CoV Urbani: 0.8
  Binding of serum 1a to looped/cyclic peptide (PEPSCAN-ELISA): 0.6
  Binding of serum 1b to linear peptides of protein X1 of SARS-CoV Urbani: 0.5
  Binding of serum 1b to looped/cyclic peptide (PEPSCAN-ELISA): 0.5
  Binding of serum 2 to linear peptides of protein X1 of SARS-CoV Urbani: 0.5
  Binding of serum 2 to looped/cyclic peptide (PEPSCAN-ELISA): 0.4
  Binding of serum 6 to linear peptides of protein X1 of SARS-CoV Urbani: 0.4
  Binding of serum 6 to looped/cyclic peptide (PEPSCAN-ELISA): 0.4
  Binding of serum 37 to linear peptides of protein X1 of SARS-CoV Urbani: 0.6
  Binding of serum 37 to looped/cyclic peptide (PEPSCAN-ELISA): 0.6
  Binding of serum 62 to linear peptides of protein X1 of SARS-CoV Urbani: 0.5
  Binding of serum 62 to looped/cyclic peptide (PEPSCAN-ELISA): 0.6
  Binding of serum London to linear peptides of protein X1 of SARS-CoV Urbani: 0.3
  Binding of serum London to looped/cyclic peptide (PEPSCAN-ELISA): 0.2
  Binding of serum SARS-green to linear peptides of protein X1 of SARS-CoV Urbani: 0.4
  Binding of serum SARS-green to looped/cyclic peptide (PEPSCAN-ELISA): 0.3
  Binding of serum SARS-yellow to linear peptides of protein X1 of SARS-CoV Urbani: 0.3
  Binding of serum SARS-yellow to looped/cyclic peptide (PEPSCAN-ELISA): 0.4
[2]
  Binding of Control Serum Blood-Bank to Looped peptides: 0.6
  Binding of Control serum Blood-bank to linear peptides: 0.4
  Binding of Control serum LUMC to linear peptides: 0.4
  Binding of Control serum LUMC to looped peptides: 0.7
[3]
  Binding of a rabbit serum to linear peptides: 0.1
  Binding of a rabbit serum to looped peptides: 0.7

## RHTYQLRARSVSPKL
[1]
  Binding of serum 1a to linear peptides of protein X4 of SARS-CoV Urbani: 0.8
  Binding of serum 1a to looped/cyclic peptides of protein X4 of SARS-CoV Urbani: 0.8
  Binding of serum 1b to linear peptides of protein X4 of SARS-CoV Urbani: 0.6
  Binding of serum 1b to looped/cyclic peptides of protein X4 of SARS-CoV Urbani: 0.5
  Binding of serum 2 to linear peptides of protein X4 of SARS-CoV Urbani: 0.6
  Binding of serum 2 to looped/cyclic peptides of protein X4 of SARS-CoV Urbani: 0.7
  Binding of serum 6 to linear peptides of protein X4 of SARS-CoV Urbani: 1.1
  Binding of serum 6 to looped/cyclic peptides of protein X4 of SARS-CoV Urbani: 0.8
  Binding of serum 37 to linear peptides of protein X4 of SARS-CoV Urbani: 0.9
  Binding of serum 37 to looped/cyclic peptides of protein X4 of SARS-CoV Urbani: 0.7
  Binding of serum 62 to linear peptides of protein X4 of SARS-CoV Urbani: 0.8
  Binding of serum 62 to looped/cyclic peptides of protein X4 of SARS-CoV Urbani: 0.6
  Binding of serum London to linear peptides of protein X4 of SARS-CoV Urbani: 0.8
  Binding of serum London to looped/cyclic peptides of protein X4 of SARS-CoV Urbani: 0.3
  Binding of serum SARS-green to linear peptides of protein X4 of SARS-CoV Urbani: 0.7
  Binding of serum SARS-green to looped/cyclic peptides of protein X4 of SARS-CoV Urbani: 0.4
  Binding of serum SARS-yellow to linear peptides of protein X4 of SARS-CoV Urbani: 0.6
  Binding of serum SARS-yellow to looped/cyclic peptides of protein X4 of SARS-CoV Urbani: 0.7
[2]
  Binding of Control Serum Blood-Bank to Looped peptides: 0.6
  Binding of Control serum Blood-bank to linear peptides: 0.8
  Binding of Control serum LUMC to linear peptides: 0.7
  Binding of Control serum LUMC to looped peptides: 0.7
[3]
  Recognition of the peptide by the rabbit serum: recognized

## VTIYSHLLLVAAGME
[1]
  Binding of serum 1a to linear peptides of protein X1 of SARS-CoV Urbani: 0.8
  Binding of serum 1a to looped/cyclic peptide (PEPSCAN-ELISA): 0.5
  Binding of serum 1b to linear peptides of protein X1 of SARS-CoV Urbani: 0.7
  Binding of serum 1b to looped/cyclic peptide (PEPSCAN-ELISA): 0.4
  Binding of serum 2 to linear peptides of protein X1 of SARS-CoV Urbani: 0.5
  Binding of serum 2 to looped/cyclic peptide (PEPSCAN-ELISA): 0.5
  Binding of serum 6 to linear peptides of protein X1 of SARS-CoV Urbani: 0.4
  Binding of serum 6 to looped/cyclic peptide (PEPSCAN-ELISA): 0.3
  Binding of serum 37 to linear peptides of protein X1 of SARS-CoV Urbani: 0.6
  Binding of serum 37 to looped/cyclic peptide (PEPSCAN-ELISA): 0.5
  Binding of serum 62 to linear peptides of protein X1 of SARS-CoV Urbani: 0.6
  Binding of serum 62 to looped/cyclic peptide (PEPSCAN-ELISA): 0.4
  Binding of serum London to linear peptides of protein X1 of SARS-CoV Urbani: 0.3
  Binding of serum London to looped/cyclic peptide (PEPSCAN-ELISA): 0.2
  Binding of serum SARS-green to linear peptides of protein X1 of SARS-CoV Urbani: 0.3
  Binding of serum SARS-green to looped/cyclic peptide (PEPSCAN-ELISA): 0.3
  Binding of serum SARS-yellow to linear peptides of protein X1 of SARS-CoV Urbani: 0.6
  Binding of serum SARS-yellow to looped/cyclic peptide (PEPSCAN-ELISA): 0.3
[2]
  Binding of Control Serum Blood-Bank to Looped peptides: 0.4
  Binding of Control serum Blood-bank to linear peptides: 0.5
  Binding of Control serum LUMC to linear peptides: 0.5
  Binding of Control serum LUMC to looped peptides: 0.6
[3]
  Binding of a rabbit serum to linear peptides: 0.1
  Binding of a rabbit serum to looped peptides: 0.5
